Results as given in patent US7109193B2, “Tricyclic diazepines tocolytic oxytocin receptor antagonists” (Wyeth, priority 2001, dated 2006).

Molecular target: T1, human vasopressin V1a receptor subtype (Homo sapiens, UniProt P37288)
T1 construct: host or cells: CHO cells (pZeoSV vector for the Thibonnier line)
Test: Vasopressin binding in Chinese Hamster Ovary cell membranes expressing human vasopressin V1a subtype receptors
Conditions: 100 nM, CHO cell membranes, [3H]Manning ligand, values without parentheses
In short: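 Membranes from CHO cells expressing human V1a receptor were incubated with [3H]Manning ligand (added as 20 μL of 8 nM) in pH 7.4 Tris buffer with MgCl2, BSA and protease inhibitors, 60 min at room temperature. Bound radioactivity was counted after filtration; values are percent inhibition at a stated concentration or IC50.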

T1 sequence (P37288 whole entry): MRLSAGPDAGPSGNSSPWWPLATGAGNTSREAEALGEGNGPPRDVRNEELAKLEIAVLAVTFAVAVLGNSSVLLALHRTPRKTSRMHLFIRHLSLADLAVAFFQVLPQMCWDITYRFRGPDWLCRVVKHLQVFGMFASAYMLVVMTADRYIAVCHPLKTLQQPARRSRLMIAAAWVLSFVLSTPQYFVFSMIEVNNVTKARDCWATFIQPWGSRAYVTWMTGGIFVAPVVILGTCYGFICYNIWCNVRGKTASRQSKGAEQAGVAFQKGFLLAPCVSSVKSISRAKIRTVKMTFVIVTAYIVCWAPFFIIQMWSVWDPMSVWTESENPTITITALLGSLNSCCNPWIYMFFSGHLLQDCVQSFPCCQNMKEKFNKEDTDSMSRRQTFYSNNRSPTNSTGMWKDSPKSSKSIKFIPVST

| SMILES | inhibition at 0.1 µM |
| --- | --- |
| COc1ccccc1-c1ccc(C(=O)N2Cc3ccc(C(=O)N4CCN(CCN(C)C)CC4)n3Cc3ccccc32)cc1OC [Example 204, {10-[(2,2′-Dimethoxy[1,1′-biphenyl]-4-yl)carbonyl]-10,11-dihydro-5H-pyrrolo[2,1-c][1,4]benzodiazepin-3-yl}{4-[2-(dimethylamino)ethyl]-1-piperazinyl}methanone] | 16% |
| COc1ccccc1-c1ccc(C(=O)N2Cc3ccc(C(=O)N(C)C4CCN(C)C4)n3Cc3ccccc32)cc1C (centres unmarked) [Example 185, 10-[(2′-Methoxy-2-methyl[1,1′-biphenyl]-4-yl)carbonyl]-N-methyl-N-(1-methyl-3-pyrrolidinyl)-10,11-dihydro-5H-pyrrolo[2,1-c][1,4]benzodiazepine-3-carboxamide] | 37% |
| COc1cc(C(=O)N2Cc3ccc(C(=O)N(C)C4CCN(C)C4)n3Cc3ccccc32)ccc1-c1ccccc1C (centres unmarked) [Example 189, 10-[(2-Methoxy-2′-methyl[1,1′-biphenyl]-4-yl)carbonyl]-N-methyl-N-(1-methyl-3-pyrrolidinyl)-10,11-dihydro-5H-pyrrolo[2,1-c][1,4]benzodiazepine-3-carboxamide] | 83% |
| C=CCN1CCN(C(=O)c2ccc3n2Cc2ccccc2N(C(=O)c2ccc(-c4cccc5ccccc45)cc2Cl)C3)CC1 [Example 229, (4-Allyl-1-piperazinyl){10-[2-chloro-4-(1-naphthyl)benzoyl]-10,11-dihydro-5H-pyrrolo[2,1-c][1,4]benzodiazepin-3-yl}methanone] | 8% |
| COc1cccc(-c2cc(OC)c(C(=O)N3Cc4ccc(C(=O)N5CCN(CCN(C)C)CC5)n4Cc4ccccc43)cc2Cl)c1 [Example 202, {10-[(6-Chloro-3,3′-dimethoxy[1,1′-biphenyl]-4-yl)carbonyl]-10,11-dihydro-5H-pyrrolo[2,1-c][1,4]benzodiazepin-3-yl}{4-[2-(dimethylamino)ethyl]-1-piperazinyl}methanone] | 2% |
| COc1cccc(-c2ccc(C(=O)N3Cc4ccc(C(=O)N(C)C5CCN(C)CC5)n4Cc4ccccc43)cc2C)c1 [Example 176, 10-[(3′-Methoxy-2-methyl[1,1′-biphenyl]-4-yl)carbonyl]-N-methyl-N-(1-methyl-4-piperidinyl)-10,11-dihydro-5H-pyrrolo[2,1-c][1,4]benzodiazepine-3-carboxamide] | 27% |
| COc1ccccc1-c1ccc(C(=O)N2Cc3ccc(C(=O)NCCN4CCCCC4)n3Cc3ccccc32)cc1OC [Example 158, 10-[(2,2′-Dimethoxy[1,1′-biphenyl]-4-yl)carbonyl]-N-[2-(1-piperidinyl)ethyl]-10,11-dihydro-5H-pyrrolo[2,1-c][1,4]benzodiazepine-3-carboxamide] | 16% |
| COc1cccc(-c2ccc(C(=O)N3Cc4ccc(C(=O)N5CCN(CCN6CCOCC6)CC5)n4Cc4ccccc43)cc2C)c1 [Example 208, {10-[(3′-Methoxy-2-methyl[1,1′-biphenyl]-4-yl)carbonyl]-10,11-dihydro-5H-pyrrolo[2,1-c][1,4]benzodiazepin-3-yl}{4-[2-(4-morpholinyl)ethyl]-1-piperazinyl}methanone] | 20% |
| COc1cc(C(=O)N2Cc3ccc(C(=O)N4CCN(CCN5CCOCC5)CC4)n3Cc3ccccc32)ccc1-c1cccc2ccccc12 [Example 213, {10-[3-Methoxy-4-(1-naphthyl)benzoyl]-10,11-dihydro-5H-pyrrolo[2,1-c][1,4]benzodiazepin-3-yl}{4-[2-(4-morpholinyl)ethyl]-1-piperazinyl}methanone] | 12% |
| Cc1cc(C(=O)N2Cc3ccc(C(=O)N(C)C4CCN(C)C4)n3Cc3ccccc32)ccc1-c1ccccc1C(F)(F)F (centres unmarked) [Example 194, N-Methyl-N-(1-methyl-3-pyrrolidinyl)-10-{[2-methyl-2′-(trifluoromethyl)[1,1′-biphenyl]-4-yl]carbonyl}-10,11-dihydro-5H-pyrrolo[2,1-c][1,4]benzodiazepine-3-carboxamide] | 23% |
| COc1cc(C(=O)N2Cc3ccc(C(=O)NCCC4CCCN4C)n3Cc3ccccc32)ccc1-c1ccccc1C (centres unmarked) [Example 167, 10-[(2-Methoxy-2′-methyl[1,1′-biphenyl]-4-yl)carbonyl]-N-[2-(1-methyl-2-pyrrolidinyl)ethyl]-10,11-dihydro-5H-pyrrolo[2,1-c][1,4]benzodiazepine-3-carboxamide] | 50% |
| COc1ccccc1-c1ccc(C(=O)N2Cc3ccc(C(=O)O)n3Cc3ccccc32)cc1C [Example 9, 10-[(2′-Methoxy-2-methyl-[1,1′-biphenyl]-4-yl)carbonyl]-10,11-dihydro-5H-pyrrolo[2,1-c][1,4]benzodiazepine-3-carboxylic acid] | 10% |
| COc1ccccc1-c1ccc(C(=O)N2Cc3ccc(C(=O)N(C)C4CCN(C)CC4)n3Cc3ccccc32)cc1 [Example 177, 10-[(2′-Methoxy[1,1′-biphenyl]-4-yl)carbonyl]-N-methyl-N-(1-methyl-4-piperidinyl)-10,11-dihydro-5H-pyrrolo[2,1-c][1,4]benzodiazepine-3-carboxamide] | 42% |
| Cc1ccccc1-c1ccc(C(=O)N2Cc3ccc(C(=O)NCCC4CCCN4C)n3Cc3ccccc32)cc1 (centres unmarked) [Example 166, 10-[(2′-Methyl[1,1′-biphenyl]-4-yl)carbonyl]-N-[2-(1-methyl-2-pyrrolidinyl)ethyl]-10,11-dihydro-5H-pyrrolo[2,1-c][1,4]benzodiazepine-3-carboxamide] | 29% |
| COc1cccc(-c2cc(OC)c(C(=O)N3Cc4ccc(C(=O)NCCN5CCCCC5)n4Cc4ccccc43)cc2Cl)c1 [Example 156, 10-[(6-Chloro-3,3′-dimethoxy[1,1′-biphenyl]-4-yl)carbonyl]-N-[2-(1-piperidinyl)ethyl]-10,11-dihydro-5H-pyrrolo[2,1-c][1,4]benzodiazepine-3-carboxamide] | 2% |
| COc1cc(-c2ccccc2C)c(Cl)cc1C(=O)N1Cc2ccc(C(=O)N3CCN(C(C)C)CC3)n2Cc2ccccc21 [Example 238, {10-[(6-Chloro-3-methoxy-2′-methyl[1,1′-biphenyl]-4-yl)carbonyl]-10,11-dihydro-5H -pyrrolo[2,1-c][1,4]benzodiazepin-3-yl}(4-isopropyl-1-piperazinyl)methanone] | 3% |
| COc1cc(C(=O)N2Cc3ccc(C(=O)N(C)C4CCN(C)CC4)n3Cc3ccccc32)ccc1-c1cccc2ccccc12 [Example 182, 10-[3-Methoxy-4-(1-naphthyl)benzoyl]-N-methyl-N-(1-methyl-4-piperidinyl)-10,11-dihydro-5H-pyrrolo[2,1-c][1,4]benzodiazepine-3-carboxamide] | 14% |
| COc1ccccc1-c1ccc(C(=O)N2Cc3ccc(C(=O)N(C)C4CCN(C)CC4)n3Cc3ccccc32)cc1C [Example 175, 10-[(2′-Methoxy-2-methyl[1,1′-biphenyl]-4-yl)carbonyl]-N-methyl-N-(1-methyl-4-piperidinyl)-10,11-dihydro-5H-pyrrolo[2,1-c][1,4]benzodiazepine-3-carboxamide] | 28% |
| O=C(NCCN1CCCCC1)c1ccc2n1Cc1ccccc1N(C(=O)c1ccc(-c3cccc4ccccc34)cc1Cl)C2 [Example 160, 10-[2-Chloro-4-(1-naphthyl)benzoyl]-N-[2-(1-piperidinyl)ethyl]-10,11-dihydro-5H-pyrrolo[2,1-c][1,4]benzodiazepine-3-carboxamide] | 6% |
| Cc1ccccc1-c1ccc(C(=O)N2Cc3ccc(C(=O)N4CCN(CCN5CCOCC5)CC4)n3Cc3ccccc32)cc1 [Example 209, {10-[(2′-Methyl[1,1′-biphenyl]-4-yl)carbonyl]-10,11-dihydro-5H-pyrrolo[2,1-c][1,4]benzodiazepin-3-yl}{4-[2-(4-morpholinyl)ethyl]-1-piperazinyl}methanone] | 64% |
| COc1cc(-c2ccccc2C)c(Cl)cc1C(=O)N1Cc2ccc(C(=O)N(C)C3CCN(C)CC3)n2Cc2ccccc21 [Example 180, 10-[(6-Chloro-3-methoxy-2′-methyl[1,1′-biphenyl]-4-yl)carbonyl]-N-methyl-N-(1-methyl-4-piperidinyl)-10,11-dihydro-5H-pyrrolo[2,1-c][1,4]benzodiazepine-3-carboxamide] | 26% |
| COc1cccc(-c2ccc(C(=O)N3Cc4ccc(C(=O)N5CCN(C(C)C)CC5)n4Cc4ccccc43)cc2OC)c1 [Example 242, {10-[(2,3′-Dimethoxy[1,1′-biphenyl]-4-yl)carbonyl]-10,11-dihydro-5H-pyrrolo[2,1-c][1,4]benzodiazepin-3-yl}(4-isopropyl-1-piperazinyl)methanone] | 33% |
| COc1cc2c(cc1OC)N(C(=O)c1ccc(-c3ccccc3C(F)(F)F)c(C)c1)Cc1cccn1C2 [Example 12, 7,8-Dimethoxy-[10,11-dihydro-5H-pyrrolo[2,1-c][1,4]benzodiazepin-10-yl][2-methyl-2′-(trifluoromethyl)[1,1′-biphenyl]-4-yl]methanone] | -10% |
| C=CCN1CCN(C(=O)c2ccc3n2Cc2ccccc2N(C(=O)c2ccc(-c4ccccc4C)c(OC)c2)C3)CC1 [Example 225, (4-Allyl-1-piperazinyl){10-[(2-methoxy-2′-methyl[1,1′-biphenyl]-4-yl)carbonyl]-10,11-dihydro-5H-pyrrolo[2,1-c][1,4]benzodiazepin-3-yl}methanone] | 35% |
| COc1cccc(-c2ccc(C(=O)N3Cc4ccc(C(=O)N5CCN(CCN6CCOCC6)CC5)n4Cc4ccccc43)cc2OC)c1 [Example 211, {10-[(2,3′-Dimethoxy[1,1′-biphenyl]-4-yl)carbonyl]-10,11-dihydro-5H-pyrrolo[2,1-c][1,4]benzodiazepin-3-yl}{4-[2-(4-morpholinyl)ethyl]-1-piperazinyl}methanone] | 45% |
| Cc1cc(C(=O)N2Cc3ccc(C(=O)NCCN4CCCCC4)n3Cc3ccccc32)ccc1-c1ccccc1C(F)(F)F [Example 161, 10-{[2-Methyl-2′-(trifluoromethyl)[1,1′-biphenyl]-4-yl]carbonyl}-N-[2-(1-piperidinyl)ethyl]-10,11-dihydro-5H-pyrrolo[2,1-c][1,4]benzodiazepine-3-carboxamide] | 8% |
